Reference: paper PMC4253628, “Antiviral effects against EV71 of pimprinine and its derivatives isolated from Streptomyces sp” (Virology Journal, 2014)
Read-outs that look alike come from different tables or passages of the source.

Assays:
HSV-1 [1] = assay: Virus yield reduction assay, HSV-1; format: cell-based, herpes simplex virus 1; settings: Hep-2 cells, — = less than 90% inhibition
[2] = Cytotoxicity, MTT method, Hep-2 cells; format: cell-based; settings: human
Description: (§1) The 50% cell cytotoxic concentrations (CC50s) of compounds were calculated using SPSS software. SI were calculated from the ratio of CC50: EC50.

HSV-1 [3] = assay: Plaque reduction assay, HSV-1 in Hep-2 cells; settings: for SI HSV-1, ratio CC50/EC50 / inhibition of HSV-1-induced plaque formation: Hep-2 cells; for EC50: Human alphaherpesvirus 1, HEp-2, read-out: EC50 HSV-1; for inhibition of HSV-1-induced plaque formation: inhibition achievable
Description: Confluent monolayers of Hep-2 cells, seeded in a 24-well plate, were infected with HSV-1 at a density of 60–80 plaque-forming units (PFU) per well and treated with media (pre-warmed DMEM containing 2% FBS, 0.8% low-melting agarose) mixed with or without the serially diluted tested compounds for the periods indicated following different procedures. The cells were incubated at 37°C until plaques appeared, followed by fixing with 10% formaldehyde and staining with 0.5% crystal violet. The plaques were counted by visual examination. The ratio of the number of plaques in the treated group to that in the untreated control was calculated.
A plaque reduction assay was performed to measure the inhibitory effects of the test compounds against HSV-1 infection.

H1N1 [4] = assay: Virus yield reduction assay, H1N1; format: cell-based, influenza virus A/human/Hubei/86/2009 (H1N1); settings: MDCK cells, — = less than 90% inhibition
Description: Virus yield reduction assays were also carried out to evaluate further the protective effects of the tested compounds.
The virus suspension, serially diluted 10-fold with DMEM containing 2% FBS, was inoculated to cells in a 96-well plate. After 1 h incubation at 37°C in 5% CO2, unbinding virus was washed out and DMEM maintenance medium supplemented with 2% FBS was added to the cells. After 2 days, the infected cells were monitored for cytopathic effects (CPEs). The virus titer was calculated by the Reed–Muench method.

H1N1 [5] = assay: Inhibition of H1N1-induced CPE in MDCK cells; format: cell-based, influenza virus A/human/Hubei/86/2009 (H1N1); settings: for EC50: Influenza A virus, read-out: EC50 H1N1
[6] = Cytotoxicity, MTT method, MDCK cells; format: cell-based, canine; settings: dog, uninfected MDCK cells, host cells of H1N1: MDCK
Description: as §1

[7] = Cytotoxicity, MTT method, HeLa cells; format: cell-based; settings: human
Description: as §1

EV71 [8] = assay: Dependence of anti-EV71 activity on virus inoculum (cell viability, MTT) in RD cells; format: cell-based, Enterovirus 71; settings: virus concentration above 10^4 TCID50
EV71 [9] = settings: EV71, RD cells
Description: (§3) Cell viability was assessed by an MTT assay, which functions based on the reduction of a MTT into formazan dye by active mitochondria. The cells were treated with 100 μL of MTT (1 mg/mL, Sigma) and incubated at 37°C for 4 h. The reaction was blocked by DMSO and measured in a microplate reader (Bio-Tek Instruments) at 492 nm. The untreated control was arbitrarily set as 100%.
(§4) Confluent cell monolayers in 96-well dishes were infected with 100 TCID50 of corresponding virus dilution mixed with serial dilutions of tested compounds for 1 h at 37°C. Inocula were aspirated and the cells were then incubated with various concentrations of DMEM/tested compounds at 37°C, 5% CO2 for 48 h. CPE were observed microscopically and the viability of the cells was determined using MTT assays. […] The concentrations required for the tested compounds to achieve 50% protection of cells from virus-induced CPE were determined.

[10] = Cytotoxicity, ATPLite luminescence-based assay, RD cells; format: cell-based; settings: human
Description: (§2) The ATPLite assay may be more sensitive to cytotoxicity than the MTT method. For RD and Hep-2 cells, similar results were obtained, and for HeLa and MDCK cells, the values of CC50 from the ATPLite assay were smaller than those from MTT assays (Tables 1, 2 and 3).

EV71 [11] = assay: Progeny virus yield reduction, EV71 in RD cells; format: cell-based, Enterovirus 71; settings: for reduction in progeny virus titers relative to virus control: 80 μM; for EC90: Enterovirus A, EV71, RD cells, progeny viral yield, read-out: EC90, compound concentration required to achieve 90% virus yield reduction
CVB3 [12] = assay: Inhibition of CVB3-induced CPE in Hep-2 cells; settings: for EC50: Enterovirus B, CVB3, HEp-2, 48 h, read-out: EC50 CVB3; for SI CVB3, ratio CC50/EC50: Hep-2 cells
Description: as §3, §4

EV71 [13] = assay: Adsorption analysis, EV71 on RD cells; format: cell-based, Enterovirus 71; settings: 160 μM pimprinethine, 80 μM WS-30581 A, 80 μM WS-30581 B; EV71 10^4 TCID50; 2 h adsorption
EV71 [14] = assay: Effective stage analysis, EV71 in RD cells; format: cell-based, Enterovirus 71; settings: 48 h; for virus titer reduction vs untreated cells: 80 μM, added post infection, EV71 100 TCID50; for viability at 80 µM: Enterovirus A, RD, added post infection (therapeutic), EV71 100 TCID50, read-out: viability rates of the infected cells
CVB3 [15] = assay: Virus yield reduction assay, CVB3; format: cell-based, Coxsackievirus B3; settings: Enterovirus B, CVB3; Hep-2 cells; — = less than 90% inhibition; read-out: EC90 CVB3, concentration required to inhibit 90% virus yield
EV71 [16] = assay: Virucidal activity against EV71; format: cell-based, Enterovirus 71; settings: 80 μM pimprinethine, 40 μM WS-30581 A or 40 μM WS-30581 B; 24 h at 4°C; 10^3 TCID50
[17] = Cytotoxicity, ATPLite luminescence-based assay, Hep-2 cells; format: cell-based; settings: human
Description: as §2

[18] = Cytotoxicity, MTT method, uninfected RD cells; format: cell-based; settings: human
Description: as §1

EV71 [19] = assay: microbe, parasite or virus in culture; settings: Enterovirus A, EV71, RD, 48 h, read-out: EC50, compound concentration required to achieve 50% protection from virus-induced cytopathogenicity
Description: as §3, §4

[20] = Cytotoxicity, ATPLite luminescence-based assay, MDCK cells; format: cell-based, canine; settings: dog
Description: as §2

ADV-7 [21] = assay: Virus yield reduction assay, ADV-7; format: cell-based, adenovirus 7; settings: Human mastadenovirus B; HeLa cells; read-out: EC90 ADV-7, concentration required to inhibit 90% virus yield
EV71 [22] = assay: Release analysis, EV71 from RD cells; format: cell-based, Enterovirus 71; settings: 80 μM pimprinethine, 40 μM WS-30581 A or B; 12 h p.i.
ADV-7 [23] = assay: Inhibition of ADV-7-induced CPE in HeLa cells; settings: for SI ADV-7, ratio CC50/EC50: HeLa cells; for EC50: Human mastadenovirus B, HeLa, 48 h, read-out: EC50 ADV-7
Description: as §3, §4

[24] = Cytotoxicity, ATPLite luminescence-based assay, HeLa cells; format: cell-based; settings: human
Description: as §2

CVB3 [25] = assay: Antiviral activity of MAO inhibitors against CVB3; format: cell-based, Coxsackievirus B3
EV71 [26] = assay: Antiviral activity of MAO inhibitors against EV71; format: cell-based, Enterovirus 71
[27] = parameters: method as in PMID 6501088; settings: ddY mice, intraperitoneal injection; cited from earlier work
[28] = H1N1, MDCK cells, 100 TCID50, 48 h, CPE, — = less than 50% inhibition
[29] = uninfected HeLa cells, host cells of ADV-7: HeLa, MTT, 48 h, read-out: CC50 (ADV-7)
[30] = uninfected Hep-2 cells, host cells of CVB3: Hep-2, MTT, 48 h, read-out: CC50 (CVB3)
[31] = 100 TCID50 EV71, RD cells, 10 h
[32] = RD cells, MTT, 48 h, mean ± SD of three experiments, read-out: CC50, compound concentration required to reduce cell viability by 50%

| Structure (SMILES) | SI HSV-1, ratio CC50/EC50 (HSV-1 [3]) | EC50 (HSV-1 [3]) [µM] | SI H1N1, ratio CC50/EC50 (H1N1 [5]; MDCK cells) | CC50 at 48 h [6] [µM] | CC50 at 48 h [7, 29] [µM] | EC90 HSV-1, concentration required to inhibit 90% virus yield (HSV-1 [1]) | anti-EV71 inhibition at excessive virus inoculum (EV71 [8]) | SI (selectivity index), ratio CC50/EC50 (EV71 [9]) | EC90 H1N1, concentration required to inhibit 90% virus yield (H1N1 [4]) | CC50 [10] [µM] | CC50 at 48 h [2, 30] [µM] | EC90 (EV71 [11]) [µM] | EC50 (CVB3 [12]) [µM] | SI CVB3, ratio CC50/EC50 (CVB3 [12]) | virus titer during virus attachment (adsorption) (EV71 [13]) | EC90 (CVB3 [15]) [µM] | EC50 (EV71 [19]) [µM] | EC90 (ADV-7 [21]) [µM] | SI ADV-7, ratio CC50/EC50 (ADV-7 [23]) | EC50 (ADV-7 [23]) [µM] | other results |
| --- | --- | --- | --- | --- | --- | --- | --- | --- | --- | --- | --- | --- | --- | --- | --- | --- | --- | --- | --- | --- | --- |
| Nc1nc2c(ncn2COCCO)c(=O)[nH]1 [Acyclovir, reference compound] | >181 | 11 ± 1 |  |  |  |  |  |  |  |  |  |  |  |  |  |  |  |  |  |  | EC90 (HSV-1 [1]; Human alphaherpesvirus 1, read-out: EC90 HSV-1, concentration required to inhibit 90% virus yield): 24 ± 5 µM; CC50 at 48 h [2]: > 2000 µM |
| NC12CC3CC(CC(C3)C1)C2 [Amantadine, reference compound] |  |  | >27 | > 2000 |  |  |  |  |  |  |  |  |  |  |  |  |  |  |  |  | EC90 (H1N1 [4]; Influenza A virus, H1N1, read-out: EC90 H1N1, concentration required to inhibit 90% virus yield): 90 ± 12 µM; EC50 (H1N1 [5]; [28]): 73 ± 8 µM |
| CCc1ncc(-c2c[nH]c3ccccc23)o1 [Pimprinethine] | 6 | 45 ± 3 |  | 577 ± 73 | 750 ± 30 | — (—, less than 50% or 90% inhibition) | Inhibition was eliminated | 24 | — (—, less than 50% or 90% inhibition) | 656 ± 82 | 256 ± 49 | 42 ± 3 | 22 ± 4 | 12 | no significant decrease | 58 ± 9 | 35 ± 4 | 63 ± 5 | 23 | 33 ± 6 | reduction in progeny virus titers relative to virus control (EV71 [11]; [31]): 3.0 log; inhibition of H1N1 infection (H1N1 [5]; MDCK cells): negligible measurable inhibition; EC50 H1N1 (H1N1 [5]; MDCK cells, 100 TCID50, 48 h, CPE, — = less than 50% inhibition): — (—, less than 50% or 90% inhibition); virus titer reduction vs untreated cells (EV71 [14]): approximately 5.0 log; viability at 80 µM (EV71 [14]): ~100%; virus titers of EV71 mixture with vs without compound (virucidal activity) (EV71 [16]): No significant difference; CC50 [17]: 233 ± 36 µM; CC50 at 48 h [18, 32]: 835 ± 20 µM; inhibition of HSV-1-induced plaque formation (HSV-1 [3]): approximately 80%; CC50 [20]: 406 ± 48 µM; release of EV71 from RD cells (EV71 [22]): unaffected; CC50 [24]: 550 ± 103 µM |
| NC(=O)c1ncn([C@@H]2O[C@H](CO)[C@@H](O)[C@H]2O)n1 [Ribavirin, reference compound] |  |  |  |  |  |  |  | 12 |  |  |  | 136 ± 49 | 90 ± 10 | 15 | no significant decrease | 103 ± 17 | 102 ± 68 | 132 ± 22 | 13 | 116 ± 19 | CC50 at 48 h [7]: 1520 ± 243 µM; CC50 at 48 h [2]: 1310 ± 385 µM; reduction in progeny virus titers (EV71 [11]; 160 μM, 100 TCID50 EV71, RD cells, 10 h): ~2.0 log; CC50 at 48 h [18]: 1230 ± 355 µM |
| N[C@@H]1C[C@H]1c1ccccc1 [TCP] |  |  |  |  |  |  |  |  |  |  |  |  |  |  |  |  |  |  |  |  | antiviral activity against CVB3 (CVB3 [25]): inactive; antiviral activity against EV71 (EV71 [26]): inactive |
| CCCc1ncc(-c2c[nH]c3ccccc23)o1 [WS-30581 A] | 4 | 18 ± 2 | 6 | 212 ± 18 | 217 ± 4 | — (—, less than 50% or 90% inhibition) | Inhibition was eliminated | 23 | — (—, less than 50% or 90% inhibition) | 313 ± 49 | 72 ± 8 | 26 ± 6 | 14 ± 4 | 5 | no significant decrease | 39 ± 4 | 16 ± 1 | 43 ± 3 | 13 | 17 ± 18 | reduction in progeny virus titers relative to virus control (EV71 [11]; [31]): 3.0 log; EC50 (H1N1 [5]; H1N1, MDCK, 48 h): 38 ± 7 µM; inhibition of H1N1 infection (H1N1 [5]; MDCK cells): less than 70%; virus titer reduction vs untreated cells (EV71 [14]): approximately 5.0 log; viability at 80 µM (EV71 [14]): ~100%; virus titers of EV71 mixture with vs without compound (virucidal activity) (EV71 [16]): No significant difference; CC50 at 48 h [18, 32]: 363 ± 13 µM; inhibition of HSV-1-induced plaque formation (HSV-1 [3]): approximately 80%; acute toxicity [27]: above 250 mg/kg; release of EV71 from RD cells (EV71 [22]): unaffected |
| CCCCc1ncc(-c2c[nH]c3ccccc23)o1 [WS-30581 B] | 6 | 14 ± 4 | 9 | 215 ± 28 | 354 ± 14 | — (—, less than 50% or 90% inhibition) | Inhibition was eliminated | 21 | — (—, less than 50% or 90% inhibition) | 267 ± 31 | 83 ± 6 | 18 ± 2 | 12 ± 2 | 7 | no significant decrease | 42 ± 6 | 11 ± 3 | 48 ± 6 | 24 | 15 ± 2 | reduction in progeny virus titers relative to virus control (EV71 [11]; [31]): 3.0 log; EC50 (H1N1 [5]; [28]): 24 ± 5 µM; inhibition of H1N1 infection (H1N1 [5]; MDCK cells): less than 70%; virus titer reduction vs untreated cells (EV71 [14]): approximately 5.0 log; viability at 80 µM (EV71 [14]): ~100%; virus titers of EV71 mixture with vs without compound (virucidal activity) (EV71 [16]): No significant difference; CC50 at 48 h [18, 32]: 229 ± 10 µM; inhibition of HSV-1-induced plaque formation (HSV-1 [3]): approximately 80%; release of EV71 from RD cells (EV71 [22]): unaffected |
| C#CCN(C)Cc1ccccc1 [pargyline] |  |  |  |  |  |  |  |  |  |  |  |  |  |  |  |  |  |  |  |  | antiviral activity against CVB3 (CVB3 [25]): inactive; antiviral activity against EV71 (EV71 [26]): inactive |
